Legend:
[1] = tested on: common bacteria; settings: typical value for common bacteria; cited from earlier work
[2] = Stability of antibiotic drug activity in 0.5% (agarose) hydrogel over time; format: physicochemical; settings: antibiotic in 0.5% (agarose) hydrogel, compare with original concentration
Excerpt: According to Table 1, gel-therapeutic agent preparations comprising an antibiotic and a 0.5% (agarose) hydrogel may be stable for up to one week. Drugs dissolve passively into the gel and stay stable over time. In some embodiments, the gel-therapeutic agent preparation may further comprise saline. The gel may be biocompatible, meaning that it is structurally similar to the extracellular matrix in tissues. The gel may be flowable, allowing either for, for example, casting into a mold or injection via needle through a port. The loading of the […] agent preparation in the device may allow consistent and uniform contact with the skin even with patient movement, maintaining continuous delivery of the therapeutic agent to the underlying tissue. The gel-therapeutic agent preparation may prevent loss of the therapeutic agent in the event of a minor leak in the adhesive of the device.

Molecule | MIC [1] | Drug activity, 3 days ([2]; 3 days) | Drug activity, 7 days ([2]; 7 days)
Gentamicin | around 2 micrograms per ml | 2.41 µg/mL | 2.04 µg/mL
CN[C@H](CC(C)C)C(=O)N[C@H]1C(=O)N[C@@H](CC(N)=O)C(=O)N[C@H]2C(=O)N[C@H]3C(=O)N[C@H](C(=O)N[C@H](C(=O)O)c4cc(O)cc(O)c4-c4cc3ccc4O)[C@H](O)c3ccc(c(Cl)c3)Oc3cc2cc(c3O[C@@H]2O[C@H](CO)[C@@H](O)[C@H](O)[C@H]2O[C@H]2C[C@](C)(N)[C@H](O)[C@H](C)O2)Oc2ccc(cc2Cl)[C@H]1O [Vancomicin] | around 2 micrograms per ml | – | –
